Here are results for nine molecules from PMC8616928, “Versatile selective evolutionary pressure using synthetic defect in universal metabolism” (Nature Communications, 2021).

As a reminder, the Km is the concentration of substrate that gives half-maximal velocity. What is called kcat is the number of substrate molecules converted per active site and unit of time at saturation.

Data set [1] addresses T1, MsIRED (Myxococcus stipitatus, UniProt L7U9F5, N32D/R33V/T34R/K37R).
T1 construct: gene MYSTI_01767
Put plainly: NADH absorbance, initial rates, Michaelis-Menten with substrate inhibition. It is filed as biochemical. As to conditions: NADH saturating, pH 7.4, 37 °C; substrate inhibition constant.

In data set [2] the target is T2, MsIRED (Myxococcus stipitatus, UniProt L7U9F5, N32E/R33Y/T34E/K37R/L67I/T71V).
T2 construct: gene MYSTI_01767
Described as above. As to conditions: NADH saturating, pH 7.4, 37 °C; substrate inhibition constant. The class given is biochemical.

A further data set deals with T3, TADH (Thermus sp. ATN1, UniProt B2ZRE3).
T3 construct: full length, untagged, expressed from pUC19 in E. coli strain AL
T3 sequence (B2ZRE3 1-347): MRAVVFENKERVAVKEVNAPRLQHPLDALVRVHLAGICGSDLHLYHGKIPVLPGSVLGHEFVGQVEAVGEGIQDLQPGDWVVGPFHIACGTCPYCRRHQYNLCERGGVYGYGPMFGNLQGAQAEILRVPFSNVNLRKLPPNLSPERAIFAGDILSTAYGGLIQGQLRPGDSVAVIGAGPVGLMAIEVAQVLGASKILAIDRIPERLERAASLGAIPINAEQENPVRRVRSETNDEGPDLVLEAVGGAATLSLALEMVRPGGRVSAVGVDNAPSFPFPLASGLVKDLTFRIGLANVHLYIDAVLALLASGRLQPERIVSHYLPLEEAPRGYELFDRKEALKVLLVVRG
The experiment in a line: anaerobic growth rescue of E. coli AL and 1H-NMR of broth. As to conditions: whole cells, NADH regenerated by glycolysis. It is filed as cell-based.

Data set [3] concerns the target T4, EntNfsB (Enterobacter cloacae, UniProt Q01234).
T4 construct: gene nfsB; full length, C-terminal His6 (pUC19), E. coli BL21(DE3), FMN holoprotein
T4 sequence (Q01234 1-217): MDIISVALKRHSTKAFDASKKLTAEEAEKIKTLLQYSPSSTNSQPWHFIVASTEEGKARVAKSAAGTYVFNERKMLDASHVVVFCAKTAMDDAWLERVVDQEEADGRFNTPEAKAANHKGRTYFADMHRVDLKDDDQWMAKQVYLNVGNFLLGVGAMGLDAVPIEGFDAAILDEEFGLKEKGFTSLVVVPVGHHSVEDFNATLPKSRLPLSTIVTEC
The experiment in a line: NADH absorbance, initial rates, anaerobic. The following applies: pH 7.4, 37 °C, activity too low for kinetic parameters. The class given is biochemical.

Data set [4] addresses T5, EntNfsB (Enterobacter cloacae, UniProt Q01234, T41L/Y68L/F124L).
T5 construct: gene nfsB
As to conditions: pH 7.4, 37 °C, saturating cofactor, anaerobic.

The target of the next data set is T6, BDHA (Bacillus subtilis, UniProt O34788).
T6 construct: full length, untagged, expressed from pUC19 in E. coli strain AL
T6 sequence (O34788 1-346): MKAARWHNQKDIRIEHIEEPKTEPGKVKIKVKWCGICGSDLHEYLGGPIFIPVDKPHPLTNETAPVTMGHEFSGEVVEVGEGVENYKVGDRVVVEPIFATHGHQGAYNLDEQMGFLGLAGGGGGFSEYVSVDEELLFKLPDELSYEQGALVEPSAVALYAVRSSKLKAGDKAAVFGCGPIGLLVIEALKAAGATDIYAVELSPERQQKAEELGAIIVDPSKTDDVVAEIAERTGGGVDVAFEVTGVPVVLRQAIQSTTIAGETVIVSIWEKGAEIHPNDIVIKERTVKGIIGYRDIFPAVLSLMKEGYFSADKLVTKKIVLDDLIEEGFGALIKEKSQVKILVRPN
The experiment in a line: anaerobic growth rescue of E. coli AL and 1H-NMR of broth. The following applies: whole cells; endogenous acetoin reductase background. It is filed as cell-based.

In another data set the target is T7, BUDC (Klebsiella pneumoniae, UniProt Q48436).
T7 construct: full length, untagged, expressed from pUC19 in E. coli strain AL
Described as above. It is filed as cell-based. The following applies: whole cells; endogenous acetoin reductase background.

The next data set deals with T8, CBADH (Clostridium beijerinckii, UniProt P25984).
T8 construct: gene adh
T8 sequence (P25984 1-351): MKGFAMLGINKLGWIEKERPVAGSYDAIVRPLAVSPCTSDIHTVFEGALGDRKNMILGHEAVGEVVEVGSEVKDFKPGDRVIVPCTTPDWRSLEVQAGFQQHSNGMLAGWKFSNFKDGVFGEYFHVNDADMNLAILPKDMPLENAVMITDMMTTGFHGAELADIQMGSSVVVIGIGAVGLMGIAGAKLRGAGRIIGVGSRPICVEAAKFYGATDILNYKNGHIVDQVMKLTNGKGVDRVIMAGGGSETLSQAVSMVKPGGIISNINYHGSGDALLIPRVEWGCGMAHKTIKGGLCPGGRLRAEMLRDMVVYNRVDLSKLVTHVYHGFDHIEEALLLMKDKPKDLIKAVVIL
The experiment in a line: NAD(P)H absorbance, initial rates. The class given is biochemical. As to conditions: NADP+, pH 8.8, 37 °C.

Substrate in data set [5]: CC1=NCCC1
The experiment in a line: NADH absorbance, initial rates, Michaelis-Menten with substrate inhibition. The class given is biochemical, Myxococcus stipitatus. The following applies: NADH saturating, pH 7.4, 37 °C.

Substrate in data set [6]: O=C(O)c1ccc([N+](=O)[O-])cc1
Put plainly: NADH absorbance, initial rates, anaerobic, Michaelis-Menten fit. It is filed as biochemical, Enterobacter cloacae. As to conditions: pH 7.4, 37 °C, saturating cofactor.

T7 sequence (Q48436 whole entry): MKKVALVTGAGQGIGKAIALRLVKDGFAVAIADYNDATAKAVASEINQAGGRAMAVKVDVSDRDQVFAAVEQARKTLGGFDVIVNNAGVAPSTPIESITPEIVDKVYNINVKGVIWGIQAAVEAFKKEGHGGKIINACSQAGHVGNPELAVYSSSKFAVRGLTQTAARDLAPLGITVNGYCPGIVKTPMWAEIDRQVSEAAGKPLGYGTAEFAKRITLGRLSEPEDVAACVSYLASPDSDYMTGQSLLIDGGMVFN

In the case of `CC1=NCCC1` [2-methyl-1-pyrroline], the figures for the Ki at MsIRED [1] and at MsIRED [2] were 11.42 mM and 4.94 mM, respectively.

Consider `CC1CCCC(=O)C1` (stereo not drawn) [3-methylcyclohexanone], for which, on TADH, the “anaerobic growth rescue of E. coli AL and 1H-NMR of broth” value (from here on “anaerobic growth rescue”) was “acetoin for BDHA and BUDC, and cyclohexanone or 3-methylcyclohexanone for TADH”.

`O=[N+]([O-])c1ccc(CO)cc1` [4-nitrobenzyl alcohol]: the “NADH absorbance, initial rates, anaerobic” value at EntNfsB [3] is “it was able to reduce 4-NBA and 4-NBALC but not 2-NBA”. At EntNfsB [4], the Km turned out to be 1110 µM.

As to `CC(=O)C(C)O` (stereo not drawn) [acetoin], the “anaerobic growth rescue” value was “acetoin for BDHA and BUDC, and cyclohexanone or 3-methylcyclohexanone for TADH” on BDHA; “acetoin for BDHA and BUDC, and cyclohexanone or 3-methylcyclohexanone for TADH” on BUDC.

Take `O=C1CCCCC1` [cyclohexanone]: the “anaerobic growth rescue” value at TADH is “acetoin for BDHA and BUDC, and cyclohexanone or 3-methylcyclohexanone for TADH”.

As to `CC(C)O` [isopropanol], the “NAD(P)H absorbance, initial rates” value on CBADH was “Unlike the parent enzyme CBADHWT, purified CBADHS was unable to oxidize isopropanol using oxidized NADP”.

B1: MsIRED (Myxococcus stipitatus DSM 14675; K37R/N32D/R33V/T34R) (protein)
chain: MKPTLTVIGAGRMGSALIKAFLQSGYTTTVWDVRKARSEPLAKLGAHLADTVRDAVKRSDIIVVNVLDYDTSDQLLRQDEVTRELRGKLLVQLTSGSPALAREQETWARQHGIDYLDGAIMATPDFIGQAECALLYSGSAALFEKHRAVLNVLGGATSHVGEDVGHASALDSALLFQMWGTLFGTLQALAISRAEGIPLEKTTAFIKLTEPVTQGAVADVLTRVQQNRLTADAQTLASLEAHNVAFQHLLALCEERNIHRGVADAMYSVIREAVKAGHGKDDFAILTRFLK
Take B1: in data set [5], the Km was found to be 19570 µM and the kcat amounted to 1.3 s⁻¹.

B2: MsIRED (Myxococcus stipitatus DSM 14675; K37R/L67I/N32E/R33Y/T34E/T71V) (protein)
chain: MKPTLTVIGAGRMGSALIKAFLQSGYTTTVWEYEKARSEPLAKLGAHLADTVRDAVKRSDIIVVNVIDYDVSDQLLRQDEVTRELRGKLLVQLTSGSPALAREQETWARQHGIDYLDGAIMATPDFIGQAECALLYSGSAALFEKHRAVLNVLGGATSHVGEDVGHASALDSALLFQMWGTLFGTLQALAISRAEGIPLEKTTAFIKLTEPVTQGAVADVLTRVQQNRLTADAQTLASLEAHNVAFQHLLALCEERNIHRGVADAMYSVIREAVKAGHGKDDFAILTRFLK
Turning to B2, in [5], the Km turned out to be 34060 µM and the kcat amounted to 2.6862 s⁻¹.

B3: EntNfsB (Enterobacter cloacae) (protein)
chain: MDIISVALKRHSTKAFDASKKLTAEEAEKIKTLLQYSPSSTNSQPWHFIVASTEEGKARVAKSAAGTYVFNERKMLDASHVVVFCAKTAMDDAWLERVVDQEEADGRFNTPEAKAANHKGRTYFADMHRVDLKDDDQWMAKQVYLNVGNFLLGVGAMGLDAVPIEGFDAAILDEEFGLKEKGFTSLVVVPVGHHSVEDFNATLPKSRLPLSTIVTEC
notes: full length, C-terminal His6 (pUC19), E. coli BL21(DE3), FMN holoprotein
Take B3: in [6], the Km is 141 ± 22 µM and the kcat is 0.762 ± 0.0383 s⁻¹.
